According to ChEMBL document CHEMBL1909046, “DrugMatrix in vitro pharmacology data”:

How the values were obtained:
[1] = molecular target: T1, Alpha-2A adrenergic receptor (Homo sapiens, UniProt P08913); assay type: cell membranes, Sf9, Membrane; settings: sf9; also: in other assays of this panel Not Active means under 50% inhibition at 10 µM
T1 sequence (P08913 whole entry): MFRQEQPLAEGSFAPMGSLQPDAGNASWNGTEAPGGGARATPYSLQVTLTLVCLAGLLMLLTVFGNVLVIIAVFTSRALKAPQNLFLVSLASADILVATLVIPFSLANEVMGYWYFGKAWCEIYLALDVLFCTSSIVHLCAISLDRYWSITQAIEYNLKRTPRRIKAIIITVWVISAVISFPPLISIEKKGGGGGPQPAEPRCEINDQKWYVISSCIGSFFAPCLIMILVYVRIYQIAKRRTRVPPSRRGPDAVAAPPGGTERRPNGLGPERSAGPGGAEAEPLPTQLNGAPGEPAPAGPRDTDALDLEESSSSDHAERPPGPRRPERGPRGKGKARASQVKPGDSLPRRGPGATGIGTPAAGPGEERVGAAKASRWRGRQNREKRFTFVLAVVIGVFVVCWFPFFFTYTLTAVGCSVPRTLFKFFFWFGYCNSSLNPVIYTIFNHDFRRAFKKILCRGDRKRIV

[2] = molecular target: Aldo-keto reductase family 1 member B1 (Rattus norvegicus, UniProt P07943); assay type: tissue-based, Lens of camera-type eye;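 also: inhibition of aldose reductase enzyme activity, measured with DL-glyceraldehyde as the substrate; in other assays of this panel Not Active means under 50% inhibition at 10 µM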
[3] = DRUGMATRIX: Glutamate, Kainate radioligand binding (ligand: [3H] Kainic acid); assay type: cell membranes, Rattus norvegicus, Wistar, Brain, Membrane; settings: Not Active = under 50% inhibition at 10 µM
[4] = molecular target: T2, Angiotensin-converting enzyme (Oryctolagus cuniculus, UniProt P12822); assay: biochemical; assay type: tissue-based, Lung;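 also: enzymatic inhibition of angiotensin-converting enzyme measured with FAPGG as the substrate; in other assays of this panel Not Active means under 50% inhibition at 10 µM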
T2 sequence (P12822 whole entry): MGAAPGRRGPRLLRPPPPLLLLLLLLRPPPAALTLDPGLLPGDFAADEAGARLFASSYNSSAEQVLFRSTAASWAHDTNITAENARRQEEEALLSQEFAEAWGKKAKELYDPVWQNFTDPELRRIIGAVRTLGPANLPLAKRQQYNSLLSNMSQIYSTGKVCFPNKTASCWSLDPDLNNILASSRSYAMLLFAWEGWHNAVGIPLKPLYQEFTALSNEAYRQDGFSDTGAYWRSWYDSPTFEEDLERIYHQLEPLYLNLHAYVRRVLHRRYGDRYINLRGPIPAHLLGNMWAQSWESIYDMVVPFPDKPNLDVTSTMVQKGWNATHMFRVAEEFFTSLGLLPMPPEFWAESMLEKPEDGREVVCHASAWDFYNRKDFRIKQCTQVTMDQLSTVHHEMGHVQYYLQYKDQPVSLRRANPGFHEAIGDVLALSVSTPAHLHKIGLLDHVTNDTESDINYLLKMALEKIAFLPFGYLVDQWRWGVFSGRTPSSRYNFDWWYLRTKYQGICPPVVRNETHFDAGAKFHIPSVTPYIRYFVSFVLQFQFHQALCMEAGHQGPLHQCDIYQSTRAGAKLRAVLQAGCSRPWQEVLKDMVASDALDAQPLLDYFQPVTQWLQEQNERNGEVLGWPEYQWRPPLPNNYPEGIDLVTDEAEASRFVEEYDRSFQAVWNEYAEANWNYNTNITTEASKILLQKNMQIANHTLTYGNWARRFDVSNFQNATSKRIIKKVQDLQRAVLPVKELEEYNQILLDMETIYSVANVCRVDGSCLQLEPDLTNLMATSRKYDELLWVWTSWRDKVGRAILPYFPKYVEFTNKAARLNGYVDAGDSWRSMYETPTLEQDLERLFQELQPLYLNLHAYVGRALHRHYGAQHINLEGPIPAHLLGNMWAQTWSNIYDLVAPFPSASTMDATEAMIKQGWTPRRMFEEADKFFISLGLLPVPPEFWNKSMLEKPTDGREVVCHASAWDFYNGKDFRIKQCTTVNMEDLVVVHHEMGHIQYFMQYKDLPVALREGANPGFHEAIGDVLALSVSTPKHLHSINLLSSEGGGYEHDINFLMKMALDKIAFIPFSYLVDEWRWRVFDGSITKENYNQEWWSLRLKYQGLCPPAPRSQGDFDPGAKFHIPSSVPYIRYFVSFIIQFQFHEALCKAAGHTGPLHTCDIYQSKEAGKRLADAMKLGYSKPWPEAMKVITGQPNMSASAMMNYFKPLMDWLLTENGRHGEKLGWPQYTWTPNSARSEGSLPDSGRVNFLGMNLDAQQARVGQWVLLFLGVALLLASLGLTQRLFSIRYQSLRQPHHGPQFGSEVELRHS

[5] = molecular target: T3, Caspase-1 (Homo sapiens, UniProt P29466); design: species or system Escherichia coli;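 also: Caspase-1 enzyme inhibition assay with a peptide substrate; in other assays of this panel Not Active means under 50% inhibition at 10 µM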
T3 sequence (P29466 whole entry): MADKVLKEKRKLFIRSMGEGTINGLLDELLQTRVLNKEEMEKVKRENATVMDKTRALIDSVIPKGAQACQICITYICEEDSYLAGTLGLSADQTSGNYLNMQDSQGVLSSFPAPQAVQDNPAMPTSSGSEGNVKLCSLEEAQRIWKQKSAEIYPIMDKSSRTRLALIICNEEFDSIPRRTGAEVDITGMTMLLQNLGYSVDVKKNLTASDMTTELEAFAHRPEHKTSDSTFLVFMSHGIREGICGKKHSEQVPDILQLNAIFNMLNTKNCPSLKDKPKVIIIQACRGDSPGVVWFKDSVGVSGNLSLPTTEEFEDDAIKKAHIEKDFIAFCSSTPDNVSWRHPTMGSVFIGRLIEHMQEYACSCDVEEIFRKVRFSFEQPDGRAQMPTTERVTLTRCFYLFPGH

[6] = molecular target: Matrix metalloproteinase-9 (Homo sapiens, UniProt P14780); assay type: cell-based
[7] = molecular target: Receptor tyrosine-protein kinase erbB-2 (Homo sapiens, UniProt P04626); assay: biochemical; assay type: cell-based, Insect cells; settings: insect cells
[8] = molecular target: T4, Cytochrome P450 2A6 (Homo sapiens, UniProt P11509); settings: bti-tn-5b1-4; also: in other assays of this panel Not Active means under 50% inhibition at 10 µM
T4 sequence (P11509 whole entry): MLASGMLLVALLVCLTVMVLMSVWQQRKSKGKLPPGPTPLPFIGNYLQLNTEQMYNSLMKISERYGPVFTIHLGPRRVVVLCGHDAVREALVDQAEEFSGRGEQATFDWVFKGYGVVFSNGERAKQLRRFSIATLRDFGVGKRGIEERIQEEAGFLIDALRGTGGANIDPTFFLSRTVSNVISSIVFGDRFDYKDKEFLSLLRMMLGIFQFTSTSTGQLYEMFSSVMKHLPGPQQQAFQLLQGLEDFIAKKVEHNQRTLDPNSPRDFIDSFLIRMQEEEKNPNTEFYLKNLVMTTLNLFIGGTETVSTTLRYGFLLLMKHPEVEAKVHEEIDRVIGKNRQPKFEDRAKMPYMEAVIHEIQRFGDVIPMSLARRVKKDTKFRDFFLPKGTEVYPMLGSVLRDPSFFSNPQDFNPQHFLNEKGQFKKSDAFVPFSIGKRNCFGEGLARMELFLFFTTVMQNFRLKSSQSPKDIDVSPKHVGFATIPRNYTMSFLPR

Chain of Receptor tyrosine-protein kinase erbB-2 (P04626 whole entry): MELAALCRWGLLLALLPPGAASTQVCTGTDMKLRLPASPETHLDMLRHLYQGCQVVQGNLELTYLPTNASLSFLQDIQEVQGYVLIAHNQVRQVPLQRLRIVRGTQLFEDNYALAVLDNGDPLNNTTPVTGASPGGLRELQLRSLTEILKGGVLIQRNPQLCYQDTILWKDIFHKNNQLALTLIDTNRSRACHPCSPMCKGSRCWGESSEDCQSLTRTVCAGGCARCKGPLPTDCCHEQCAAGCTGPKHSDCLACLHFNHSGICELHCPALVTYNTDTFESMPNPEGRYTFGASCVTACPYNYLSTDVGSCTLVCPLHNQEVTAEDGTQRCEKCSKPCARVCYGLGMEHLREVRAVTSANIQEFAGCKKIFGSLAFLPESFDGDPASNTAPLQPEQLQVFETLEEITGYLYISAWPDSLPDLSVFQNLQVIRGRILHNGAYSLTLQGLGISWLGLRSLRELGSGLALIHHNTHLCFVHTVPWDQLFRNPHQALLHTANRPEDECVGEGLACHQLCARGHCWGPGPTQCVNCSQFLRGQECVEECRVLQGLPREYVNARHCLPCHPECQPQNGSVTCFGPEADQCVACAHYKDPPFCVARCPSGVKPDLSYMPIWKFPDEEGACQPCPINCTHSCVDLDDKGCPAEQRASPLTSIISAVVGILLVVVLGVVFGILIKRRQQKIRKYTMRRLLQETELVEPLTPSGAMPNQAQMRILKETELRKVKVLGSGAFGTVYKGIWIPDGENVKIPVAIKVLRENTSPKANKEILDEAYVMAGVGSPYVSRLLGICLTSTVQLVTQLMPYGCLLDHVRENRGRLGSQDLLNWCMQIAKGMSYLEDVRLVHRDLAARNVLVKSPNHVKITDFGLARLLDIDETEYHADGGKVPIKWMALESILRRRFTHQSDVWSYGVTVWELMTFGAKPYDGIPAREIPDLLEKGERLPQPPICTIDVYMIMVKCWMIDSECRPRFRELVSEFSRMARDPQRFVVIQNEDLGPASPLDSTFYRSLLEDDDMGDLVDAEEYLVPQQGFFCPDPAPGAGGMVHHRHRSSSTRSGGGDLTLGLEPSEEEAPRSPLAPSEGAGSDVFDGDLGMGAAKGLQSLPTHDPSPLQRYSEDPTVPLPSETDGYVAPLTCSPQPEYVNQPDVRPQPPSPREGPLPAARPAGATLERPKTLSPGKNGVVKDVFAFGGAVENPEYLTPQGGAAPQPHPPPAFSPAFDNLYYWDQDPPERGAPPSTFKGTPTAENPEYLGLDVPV
Chain of Matrix metalloproteinase-9 (P14780 whole entry): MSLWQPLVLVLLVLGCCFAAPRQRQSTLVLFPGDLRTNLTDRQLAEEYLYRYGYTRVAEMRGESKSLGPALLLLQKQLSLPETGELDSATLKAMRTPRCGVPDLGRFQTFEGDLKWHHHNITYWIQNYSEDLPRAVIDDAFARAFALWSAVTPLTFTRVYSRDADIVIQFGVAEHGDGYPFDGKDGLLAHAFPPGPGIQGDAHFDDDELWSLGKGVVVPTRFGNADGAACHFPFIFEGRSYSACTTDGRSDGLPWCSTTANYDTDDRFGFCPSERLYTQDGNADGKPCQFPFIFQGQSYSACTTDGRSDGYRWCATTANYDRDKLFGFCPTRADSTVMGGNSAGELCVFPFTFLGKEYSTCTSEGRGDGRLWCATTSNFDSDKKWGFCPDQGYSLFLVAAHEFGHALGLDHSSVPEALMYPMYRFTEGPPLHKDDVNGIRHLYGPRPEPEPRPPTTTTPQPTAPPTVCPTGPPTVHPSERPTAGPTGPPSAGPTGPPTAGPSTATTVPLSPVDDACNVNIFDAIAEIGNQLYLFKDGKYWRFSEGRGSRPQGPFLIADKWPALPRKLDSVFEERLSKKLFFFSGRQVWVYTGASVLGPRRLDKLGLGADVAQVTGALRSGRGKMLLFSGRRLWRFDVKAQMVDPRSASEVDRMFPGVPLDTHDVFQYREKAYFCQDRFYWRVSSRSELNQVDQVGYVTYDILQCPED

CC(=O)O[C@]1(C(C)=O)CC[C@H]2[C@@H]3C=C(Cl)C4=CC(=O)CC[C@]4(C)[C@H]3CC[C@@]21C [CHLORMADINONE ACETATE]
Not Active: IC50 [1] | IC50 [2] | IC50 [3] | Ki [3] | IC50 [4] | IC50 [5] | IC50 [6] | IC50 [7] | IC50 [8] | Ki [8]

CN1CCC[C@H]1c1cccnc1 [NICOTINE]
Not Active: IC50 [1] | IC50 [2] | IC50 [3] | Ki [3] | IC50 [4] | IC50 [5] | IC50 [6] | IC50 [7] | IC50 [8] | Ki [8]

NCC[C@H](O)C(=O)N[C@@H]1C[C@H](N)[C@@H](O[C@H]2O[C@H](CN)[C@@H](O)[C@H](O)[C@H]2O)[C@H](O)[C@H]1O[C@H]1O[C@H](CO)[C@@H](O)[C@H](N)[C@H]1O [AMIKACIN]
Not Active: IC50 [1] | IC50 [2] | IC50 [3] | Ki [3] | IC50 [4] | IC50 [5] | IC50 [6] | IC50 [7] | IC50 [8] | Ki [8]

C=C1C(=O)O[C@@H]2C3O[C@]3(C)CC/C=C(\C)CC[C@@H]12 (stereo not given in full)
Not Active: IC50 [1] | IC50 [2] | IC50 [3] | Ki [3] | IC50 [4] | IC50 [5] | IC50 [6] | IC50 [7] | IC50 [8] | Ki [8]

NCC1(CC(=O)O)CCCCC1 [GABAPENTIN]
Not Active: IC50 [1] | IC50 [2] | IC50 [3] | Ki [3] | IC50 [4] | IC50 [5] | IC50 [6] | IC50 [7] | IC50 [8] | Ki [8]

Brc1ccccc1 [BROMOBENZENE]
Not Active: IC50 [1] | IC50 [2] | IC50 [3] | Ki [3] | IC50 [4] | IC50 [5] | IC50 [6] | IC50 [7] | IC50 [8] | Ki [8]

CC(=O)CCCCn1c(=O)c2c(ncn2C)n(C)c1=O [PENTOXIFYLLINE]
Not Active: IC50 [1] | IC50 [2] | IC50 [3] | Ki [3] | IC50 [4] | IC50 [5] | IC50 [6] | IC50 [7] | IC50 [8] | Ki [8]

Cc1c(-c2ccccc2)oc2c(C(=O)OCCN3CCCCC3)cccc2c1=O [FLAVOXATE]
Not Active: IC50 [1] | IC50 [2] | IC50 [3] | Ki [3] | IC50 [4] | IC50 [5] | IC50 [6] | IC50 [7] | IC50 [8] | Ki [8]

C/C=C1\[C@H]2C=C(C)C[C@]1(N)c1ccc(=O)[nH]c1C2 [HUPERZINE A]
Not Active: IC50 [1] | IC50 [2] | IC50 [3] | Ki [3] | IC50 [4] | IC50 [5] | IC50 [6] | IC50 [7] | IC50 [8] | Ki [8]
